“And” between values parts separate entries of the source, which are not always exact repeats. Equal entries are not always repeated. “Also recorded” adds a separate entry of the source.
Columns and labels:
[1] = test system: UACC-62 human melanoma cells; test: Organelle localization in live cells by fluorescence microscopy; conditions: live UACC-62 cells; for LOCALIZATION: fluorescence microscope λex=405, 490, 570 nm, λem>510 nm
[2] = Spectrophotometric properties of the free styryl dyes; format: physicochemical
Protocol: (§1) With these compounds(FIG. 2), we observed the fluorescence intensity change upon addition of DNA. […] With a series of concentrations of dsDNA (double stranded DNA) added to compound 1, a linear increase in the fluorescence intensities was observed (FIG. 3). At the highest concentration of DNA tested (50 μg/mL), the increase in fluorescence emission reached up to 13.3 times higher than that of the free compound (FIG. 4). A blue shift of 17 nm in the emission wavelength upon DNA addition was observed, without a significant excitation wavelength shift. The structure of compound 1 includes a 2,4,5-trimethoxy group from the benzaldehyde moiety and a unique adamantyl pyridinium functionality.

[3] = test system: dsDNA (double stranded DNA); test: Fluorescence change of the dye upon addition of DNA (fluorometric titration); format: binding
Protocol: as §1
Different trimethoxy isomers, 2 (3,4,5-trimethoxy) and 3 (2,3,4-trimethoxy) were synthesized to compare the positional effects of the methoxy groups in compound 1 (FIG. 2). While the responses of compound 2 and 3 to DNA treatment were simliar to that of compound 1, the fluorescence emission increase was much smaller in compound 2 (4.3 fold) and compound 3 (1.5 fold).

[4] = Fluorescence excitation/emission of the styryl dye library compounds; format: physicochemical; conditions: EX/EM peak no. 1

Row | SMILES | LOCALIZATION [1] | EM(nm) [4] | EX(nm) [4] | further results
1 | COc1cc(OC)c(OC)cc1C=Cc1cc[n+](C23CC4CC(CC(C4)C2)C3)cc1.[Br-] [Compound 1] |  |  |  | nuclear localization / staining in live cells ([1]; compounds 1, 2, 3 at the same concentration): more selective staining of the nucleus of live cells; emission wavelength [2]: 583 nm; excitation wavelength [2]: 413 nm; λem free (nm) ([2]; free dye): 583 nm; λmax (nm) ([2]; free dye): 413 nm; linear fluorescence response range ([2]; in PBS, without self-quenching or wavelength shifts): 0.05 to 100 µM; φF free ([2]; quantum yield, free dye): 0.00024; blue shift in the emission wavelength upon DNA addition [3]: 17 nm; fluorescence intensity change upon addition of DNA [3]: strong fluorescence increase; increase in fluorescence emission versus free compound ([3]; highest DNA concentration tested, 50 μg/mL): 13.3 times; φF DNA ([3]; quantum yield, with DNA): 0.0032; φF DNA/φF free ([3]; ratio of quantum yields with DNA and free): 13.3; λem DNA (nm) ([3]; with DNA): 566 nm
2 | Cc1ccnc(-c2cc(/C=C/c3cccc4ccccc34)cc[n+]2C)c1.[I-] [Compound J32] | MITO | 530 nm | 350-450 nm | 
3 | C[n+]1ccc(C=Cc2c[nH]c3ccccc23)cc1.[I-] [Compound A24] | CYTO | 530 nm | 400) nm | 
4 | Cc1ccc[n+](C)c1C=CC=Cc1ccc(N(C)C)cc1.[I-] [Compound D37] | MITO | 650 nm | 470(broad) nm | 
5 | C[n+]1c(C=CCc2ccccc2)ccc2ccccc21.[I-] [Compound H1] | MITO | 640 nm |  | 
6 | Cc1cccc(C=Cc2ccc3ccccc3c2)[n+]1C.[I-] [Compound L33] | MITO | 500 nm | 360-470 nm | 
7 | C[n+]1ccc(C=CCc2ccccc2)cc1.[I-] [Compound A1] | CYTO | 490 nm | 390 nm | 
8 | CN(C)c1ccc(C=Cc2cc[n+](C)cc2)cc1.[I-] [Compound A19] | MITO and NUCLEOLI | 600 nm | 460 nm | 
9 | Cc1cccc(/C=C/c2ccc(N(C)C)cc2)[n+]1C.[I-] [Compound L19] | MITO | 580 nm | 450 nm | 
10 | C[n+]1c(C=Cc2ccc3c(c2)OCO3)ccc2ccccc21.[I-] [Compound H39] | CYTO | 670 nm and 560 nm | 530 nm and 430(broad) nm | 
11 | COc1ccc2c(ccc(C=Cc3ccccc3Br)[n+]2C)c1.[I-] [Compound I3] | MITO | 640 nm | 480 nm | 
12 | COc1ccc(C=Cc2cccc(C)[n+]2C)cc1.[I-] [Compound L10] | MITO | 510 nm | 420 nm | 
13 | CN(C)c1ccc(C=Cc2ccc3ccccc3[n+]2C)c2ccccc12.[I-] [Compound H27] | MITO | 620 nm | 500(broad) nm | 
14 | Fc1c(F)c(F)c(C=Cc2cc[n+](C34CC5CC(CC(C5)C3)C4)cc2)c(F)c1F.[Br-] [Compound B31] | MITO | 580 nm | 430 nm | 
15 | C[n+]1ccc(C=Cc2cccc3ccccc23)c2ccccc21.[I-] [Compound G32] | MITO | 560 nm | 430 nm | 
16 | COc1ccc2ccccc2c1C=Cc1cccc[n+]1C.[I-] [Compound C23] | CYTO | 530 nm | 420 nm | 
17 | COc1ccc2c(ccc(C=Cc3cccc([N+](=O)[O-])c3)[n+]2C)c1.[I-] [Compound I21] | VESICLE; also recorded: NUCLEOLI | 620 nm | 390 nm | 
18 | COc1ccc2c(ccc(C=Cc3ccc(F)cc3)[n+]2C)c1.[I-] [Compound I30] | MITO | 630 nm |  | 
19 | CN(C)c1ccc(/C=C/c2cc[n+](C)c3ccccc23)cc1.[I-] [Compound G19] | MITO | 670 nm | 500 nm | 
20 | COc1ccc(C=Cc2ccc3ccccc3[n+]2C)c2ccccc12.[I-] [Compound H14] | VESICLE | 590 nm | 420-520 nm | 

Row | SMILES | LOCALIZATION [1] | EM(nm) [4] | EX(nm) [4] | further results
21 | CN(C)c1ccc(C=Cc2cc[n+](C)c3ccccc23)c2ccccc12.[I-] [Compound G27] | MITO | 720 nm | 450-550(broad) nm | 
22 | C[n+]1ccc(C=Cc2ccc(OCc3ccccc3)c(OCc3ccccc3)c2)c2ccccc21.[I-] [Compound G12] | MITO and NUCLEOLI | 590 nm | 420-460 nm | 
23 | CCc1ccc(C=Cc2ccc(N(C)C)cc2)[n+](C)c1.[I-] [Compound E19] | MITO | 580 nm | 460(broad) nm | 
24 | C[n+]1c(C=Cc2cccc3ccccc23)ccc2ccccc21.[I-] [Compound H32] | MITO and NUCLEOLI | 660 nm | 420 nm | 
25 | COc1ccccc1C=Cc1cc[n+](C)c2ccccc12.[I-] [Compound G9] | MITO | 630 nm | 430 nm | 
26 | COc1ccc2ccccc2c1/C=C/c1c(C)ccc[n+]1C.[I-] [Compound D23] | CYTO | 510 nm | 420(broad) nm | 
27 | Cc1ccnc(-c2cc(C=Cc3ccccc3[N+](=O)[O-])cc[n+]2C)c1.[I-] [Compound J20] | VESICLE | 620 nm | 420 nm | 
28 | COc1ccc2ccccc2c1C=Cc1ccc2ccccc2[n+]1C.[I-] [Compound H23] | VESICLE; also recorded: NUCLEOLI | 580 nm | 420-480 nm | 
29 | COc1ccc(C=Cc2cc[n+](C)c(-c3cc(C)ccn3)c2)cc1O.[I-] [Compound J15] | VESICLE | 530 nm | 340-440 nm | 
30 | C[n+]1ccc(C=Cc2ccc3ccccc3c2)c2ccccc21.[I-] [Compound G33] | MITO and CYTO | 550 nm | 360-470 nm | 
31 | COc1ccc2ccccc2c1C=Cc1cc[n+](C)cc1.[I-] [Compound A23] | CYTO and MITO | 540 nm | 450 (broad) nm | 
32 | COc1ccc(C=Cc2ccc3ccccc3[n+]2C)cc1.[I-] [Compound H10] | MITO | 650 nm | 530 nm | 
33 | COc1ccc2c(ccc(C=Cc3ccc4c(c3)Cc3ccccc3-4)[n+]2C)c1.[I-] [Compound I28] | NUCLEOLI | 660 nm | 450(broad) nm | 
34 | O=Cc1ccccc1C=Cc1cc[n+](C23CC4CC(CC(C4)C2)C3)cc1.[Br-] [Compound B25] | CYTO | 570 nm | 430 nm | 
35 | C[n+]1c(C=Cc2ccccc2[N+](=O)[O-])ccc2ccccc21.[I-] [Compound H20] | NUCLEOLI | 620 nm |  | 
36 | COc1ccccc1C=Cc1ccc2ccccc2[n+]1C.[I-] [Compound H9] | MITO | 650 nm |  | 
37 | Cc1ccc(C=Cc2cc[n+](C)c3ccccc23)cc1.[I-] [Compound G8] | MITO | 650 nm | 440 nm | 
38 | COc1ccc2c(ccc(/C=C/c3ccc(NC(C)=O)cc3)[n+]2C)c1.[I-] [Compound I18] | NUCLEOLI | 650 nm | 430(broad) nm | 
39 | COc1ccc2c(ccc(C=CCc3ccccc3)[n+]2C)c1.[I-] [Compound I1] | MITO | 630 nm | 460 nm | 
40 | C[n+]1c(C=Cc2ccc(O)cc2)ccc2ccccc21.[I-] [Compound H16] | NUCLEOLI | 630 nm | 450 nm | 

— patent publication US20050054006A1, “Combinatorial fluorescent library based on the styryl scaffold” (New York University, priority 2003, published 2005)
